Legend:
[1] = system: CD2F1 mice, lethal total body irradiation; experiment: Survival after lethal total body irradiation; assay type: in vivo
Description: Mice were treated with vehicle or 10 mg/kg RRx-001 intraperitoneally 24 hours prior to irradiation (9.35 Gy delivered at 0.6 Gy/min).
CD2F1 mice were treated with lethal dose 70/30 whole body irradiation dose of 9.35 Gy at 0.6 Gy/min using a ^60Co source. Twenty-four hours prior to irradiation, all mice were intraperitoneally injected with either 10 mg/kg RRx-001 or the vehicle control (5% dimethyl sulfoxide in sterile water).

[2] = system: squamous cell carcinoma of the oral cavity or oropharynx; experiment: PREVLAR trial: tumor response and cancer recurrence; assay type: in vivo, human
From the text: Referring to FIG. 6, FIG. 6 is a table 600 showing various incidences of outcomes for patients in Arm 4 of the PREVLAR study vs. patients in Arms 1, 2, and 3 of the PREVLAR study. The various outcomes include a complete response (CR), a partial response (PR), a CR or PR, not evaluable (NE), and missing. […] Thus, administration of RRx-001 was correlated to better outcomes.
Referring to FIG. 10, FIG. 10 is a bar graph 1000 showing a percentage of less cancer recurrence in RRx-001 treated patients. Accordingly, a higher percentage is correlated to the better outcome of lower cancer recurrence. […] Patients in Arm 4 had the lowest percentage drop of 30.8% of cancer recurrence.
The treatment phase commenced 2 weeks before the start of CRT and continued until the LDRT. The short-term follow-up stage started the day after LDRT and continued until complete resolution of ulcerative OM (World Health Organization (WHO) grade≤1 or 6 weeks after the LDRT, whichever came first). Long-term follow-up was performed to assess tumor response for 12 months after the LDRT. OM was assessed twice weekly beginning on the first day of CRT and continuing to resolution of ulcerative OM by trained evaluators using a standardized data collection tool.

[3] = 10 mg/kg 24 hours prior to lethal total body irradiation, vs vehicle control

O=C(CBr)N1CC([N+](=O)[O-])([N+](=O)[O-])C1 [RRx-001, 2-bromo-1-(3,3-dinitroazetidin-1-yl) ethan-1-one]
increase in mean survival time [1, 3]: 7 days | increase in survival [1, 3]: 33.4% | Survival over 30 days post-exposure ([1]; 10 mg/kg intraperitoneally 24 hours prior to 9.35 Gy at 0.6 Gy/min): 67% | reduction in the 30-day death risk ([1]; 1 dose of 10 mg/kg 24 hours prior to 9.35 Gy, vs vehicle control): ~33.4% | percentage drop of cancer recurrence ([2]; Arm 1): 50% | percentage drop of cancer recurrence ([2]; Arm 2): 53.8% | percentage drop of cancer recurrence ([2]; Arm 3): 76.9% | incidence of either CR or PR ([2]; patients in Arms 1, 2, or 3): 65.7% | incidence of complete response (CR) ([2]; patients that received RRx-001 in Arms 1, 2, or 3): 48.6%

— US20260240810A1, “COMPOSITIONS AND METHODS FOR REDUCING ADVERSE SIDE EFFECTS IN CANCER TREATMENT” (priority 2022, published 2026)
